Test results as given in US20100143999A1, “PROCESS FOR FERMENTIVE PREPARATION OF ALCOHOLS AND RECOVERY OF PRODUCT” (E.I. DU PONT DE NEMOURS AND COMPANY, priority 2008, published 2010).

Tests used:
[1] = tested on: Saccharomyces cerevisiae (W1362 20A); test: Scale-up fermentation (25 mL broth) with 5 volume percent ionic liquid, HPLC over five hours; type: cell-based; details: five hour time span, FIG. 2
Protocol: Cultures were again prepared using the same growth conditions as described above except that the total broth volume was 25 mL. The selected ionic liquids were added to a container of each broth in an amount of 5 volume percent. In these experiments, small samples were withdrawn from the broth for HPLC analysis periodically over a five hour time span to get a better idea of the extent of metabolic activity after ionic liquid addition as well as to provide information on glucose consumption and product formation. […] The calculation of GUI was made as described above, and amount of ethanol produced was taken directly from the HPLC data.

[2] = tested on: Saccharomyces cerevisiae (W1362 20A); test: Glucose Uptake Index of S. cerevisiae culture with 5% (v/v) ionic liquid; type: cell-based; details: YPD medium, 30° C., 16 hours after addition
Protocol: After 24 hours the test tube was removed and stored at 4° C.

[3] = Extraction of ethanol from an aqueous solution by ionic liquid; type: physicochemical; details: 3 mL aqueous solution about 31 g/L ethanol, 150 microliters (5 vol %) ionic liquid, overnight equilibration
Protocol: (§1) Ethanol and isobutanol concentration in the solution was measured using HPLC as described above following thorough mixing and overnight equilibration of the contents of the vial.

[4] = Extraction of isobutanol from an aqueous solution by ionic liquid; type: physicochemical; details: 3 mL aqueous solution about 31 g/L isobutanol, 150 microliters (5 vol %) ionic liquid, overnight equilibration
Protocol: as §1

| Molecule | ethanol production [1] | glucose uptake [1] | GUI of Example (Glucose Utilization Index in the presence of ionic liquid phase) [2] | Ethanol (concentration in the solution after extraction) [3] [mM] | Isobutanol (concentration in the solution after extraction) [4] [mM] | GUI of Example (Glucose Utilization Index in the presence of ionic liquid phase) ([2]; listed as 14) |
| --- | --- | --- | --- | --- | --- | --- |
| 1-butyl-3-methylpyrrolidinium bis(trifluoromethylsulfonyl)imide [Example 15] | remained robust | remained robust |  |  |  |  |
| tetradecyl(tri-n-hexyl)phosphonium 1,1,2-trifluoro-2-(perfluoroethoxy)ethanesulfonate [Example 2] |  |  | 78.4 |  |  |  |
| 1-butyl-3-methylimidazolium 2-(1,2,2,2-tetrafluoroethoxy)-1,1,2,2-tetrafluoroethanesulfonate [Example 13] |  |  | 42.8 |  |  |  |
| 3-methyl-1-propylpyridinium bis(trifluoromethylsulfonyl)imide [Example 12] |  |  | 97.1 |  |  |  |
| 1-hexyl-3-methylimidazolium bis(trifluoromethylsulfonyl)imide [Example 9] | remained robust | remained robust | 89.5 | 678 | 388 |  |
| 1-ethyl-3-methylimidazolium bis(trifluoromethylsulfonyl)imide [Example 6] | remained robust | remained robust | 76.8 | 670 | 389 |  |
| 1-butyl-3-methylimidazolium 1,1,2,3,3,3-hexafluoropropanesulfonate [Example 11] |  |  | 30.1 |  |  | 31.9 |
| 1-butyl-3-methylimidazolium 1,1,2-trifluoro-2-(trifluoromethoxy)ethanesulfonate [Example 10] |  |  | 37.1 |  |  |  |
| CCCCCCn1cc[n+](C)c1.FC(F)(F)C(F)(F)[P-](F)(F)(F)(C(F)(F)C(F)(F)F)C(F)(F)C(F)(F)F [Example 1, 1-hexyl-3-methylimidazolium tris(pentafluoroethyl)trifluorophosphate] | remained robust | remained robust | 99.7 | 680 | 404 |  |
| 1-butyl-3-methylimidazolium 1,1,2-trifluoro-2-(perfluoroethoxy)ethanesulfonate [Example 4] |  |  | 22.0 |  |  |  |
| CCCCn1cc[n+](C)c1.F[P-](F)(F)(F)(F)F [Example 7, 1-butyl-3-methylimidazolium hexafluorophosphate] |  |  | 48.2 |  |  |  |
